Experimental findings from PubChem BioAssay AID1996 are described below.

Values after ≈ are worked out from the molar mass of the structure shown. Non-standard residues stand in square brackets, D forms with d. Residues, ends and D or L forms follow the SMILES beside them. *: point of attachment. Tic = O=C(O)[C@@H]1Cc2ccccc2CN1; NHPr = CCCN*

For the data set the following is noted: buffer; pH 7.4; 200.0 µM.
For orientation: kinetic solubility means the concentration staying in solution when a stock, usually in DMSO, is diluted into the medium. `O=[N+]([O-])c1ccc(CSc2ncnc3ccccc23)cc1` gave a solubility (kinetic) of 5.6 µg/mL (≈ 18.8 µM). In the case of `O=C(c1ccc(Cl)s1)N1CCN(c2ncccn2)CC1` it was more than 46.3 µg/mL; in that of `CCOc1ncccc1C(=O)N(CC)CC(=O)NCc1ccc(F)cc1`, more than 53.9 µg/mL. `Cc1ccccc1C(=O)NCC(=O)O` yielded a solubility (kinetic) of more than 29 µg/mL. The figure for `O=C(CCl)Nc1cccc(S(=O)(=O)NC2=NCCCCC2)c1` is more than 51.6 µg/mL; for `O=C(Nc1ccccc1C(=O)Nc1ccccn1)c1ccc([N+](=O)[O-])cc1` it is 0.6 µg/mL (≈ 1.66 µM); for `O=[N+]([O-])c1ccc2c(c1)nc1n2CCN(CC2CCCO2)C1` (stereo not drawn) it is 41.1 µg/mL (≈ 136 µM).

`COc1cccc(C(=O)Nc2cc(C)nn2-c2ccccc2)c1OC` showed a kinetic solubility of more than 50.6 µg/mL.

With `Cc1nc(-c2ccc(C(=O)NCCO)cc2)cs1`, the kinetic solubility was more than 39.3 µg/mL.

`CC(NC(=O)COc1ccccc1)C(=O)N1CCN(c2ccc(F)cc2)CC1` (stereo not drawn) displayed a solubility (kinetic) of more than 57.8 µg/mL.

`Cc1cc2c(=O)n(C)c(SCC(=O)Nc3ccccc3)nc2s1` displayed a solubility (kinetic) of 0.4 µg/mL (≈ 1.16 µM). The figure for `S=C(NCc1ccc2c(c1)OCO2)NC1CC1` is more than 37.5 µg/mL; for `COc1ccc(N2CCN(c3cc(C)c4ccc(C)cc4n3)CC2)cc1` it is 1.1 µg/mL (≈ 3.17 µM); for `COc1ccc(CCNC(=O)C2CC=CCC2C(=O)O)cc1` (stereo not drawn) it is more than 45.5 µg/mL. The figure for `O=C(Cn1cnc2ccccc2c1=O)NCc1cccs1` is 35.6 µg/mL (≈ 119 µM). In turn, `CC[n+]1c(C)n(-c2ccccc2)c2ccc(NC(C)=O)cc21.[I-]` displayed a kinetic solubility of more than 63.2 µg/mL. On to `O=C(Nc1ccccc1C(F)(F)F)C1CCCC1`, for which the kinetic solubility was determined as 30.4 µg/mL (≈ 118 µM). As for `O=C(/C=C/c1ccc(Cl)cc1)NCCCN1CCOCC1`, the solubility (kinetic) is more than 46.3 µg/mL. In turn, `CCNC(=S)N1CCCCC1CO` (stereo not drawn) came in with a kinetic solubility of 27.2 µg/mL (≈ 134 µM). The figure for `O=C(c1cccc(Oc2ccccc2)c1)N1CCOCC1` is more than 42.5 µg/mL; for `O=C(CSc1ncccn1)Nc1cc(Cl)ccc1[N+](=O)[O-]` it is 4.7 µg/mL (≈ 14.5 µM). The figure for `c1ccc2c(CN3CCOCC3)c[nH]c2c1` is more than 32.4 µg/mL. In the case of `O=C(c1ccncc1)N1CCN(S(=O)(=O)c2ccc(F)cc2)CC1` it was more than 52.4 µg/mL; in that of `O=C(Nc1ccc2c(c1)OCCO2)C1CCCC1`, more than 37.1 µg/mL. `O=C(CCNS(=O)(=O)c1ccccc1)N1CCCCCC1` displayed a solubility (kinetic) of more than 46.6 µg/mL. In turn, `CC(=O)Nc1cccc(NCC(=O)Nc2cc(S(=O)(=O)N3CCCCC3)ccc2Cl)c1` displayed a solubility (kinetic) of 35.8 µg/mL (≈ 77 µM). On to `CCOC(=O)c1cc(-c2csc(COc3ccccc3)n2)on1`, for which the solubility (kinetic) was found to be 0.4 µg/mL (≈ 1.21 µM). The figure for `O=C(Nc1ccccc1F)c1cnccn1` is more than 32.6 µg/mL. In the case of `O=C(NCC1CCCO1)c1ccc(NC(=O)c2cc(F)c(F)cc2Cl)cc1` (stereo not drawn) it was 5.3 µg/mL (≈ 13.4 µM).

In turn, `Cc1ccc(OC(=O)c2cccnc2)cc1` came in with a solubility (kinetic) of 22.5 µg/mL (≈ 106 µM). In the case of `O=C(CCC(=O)c1ccccc1)Nc1ccccc1OC(F)F` it was more than 47.9 µg/mL.

`COc1cccc(NC(=O)COc2ccc3c(c2)CCC3)c1` yielded a kinetic solubility of 1.3 µg/mL (≈ 4.37 µM). For `O=C1CCC(=O)N1c1ccc(S(=O)(=O)N2CCCC2)cc1`, the kinetic solubility came out at 45.4 µg/mL (≈ 147 µM).

On to `O=C(COC(=O)CCNS(=O)(=O)c1ccccc1)NC1CC1`, for which the kinetic solubility came out at 43.8 µg/mL (≈ 134 µM). The figure for `COc1ccc(/C=C/C(=O)NC(=S)N2CCN(C)CC2)cc1` is more than 47.9 µg/mL; for `COC(=O)c1c(C)noc1-c1ccc(Cl)cc1` it is 1.6 µg/mL (≈ 6.36 µM); for `CCCn1c2ccccc2c2cnn(CC(=O)NCCOC)c(=O)c21` it is more than 51.4 µg/mL. The figure for `Cc1ccc(C(=O)N2CCN(c3ncccn3)CC2)c(C)c1` is 27.5 µg/mL (≈ 92.8 µM); for `Clc1cc(Br)ccc1NCc1cccnc1` it is 24.7 µg/mL (≈ 83 µM); for `CCCCN(CC)Cc1c(C)[nH]c2c(ccc3ccccc32)c1=O` it is more than 48.4 µg/mL. `O=C(CNC(=O)c1cccs1)c1ccc(Br)cc1` came in with a kinetic solubility of 17.9 µg/mL (≈ 55.2 µM). In the case of `O=C(CNC(=O)c1ccc(Cl)cc1)Nc1ccccc1C(F)(F)F` it was 3.4 µg/mL (≈ 9.53 µM); in that of `Cc1sc2ncnc(NCCCN3CCCC3=O)c2c1C`, more than 45.7 µg/mL; in that of `CC1CCCC(NC(=O)CSc2ncccn2)C1C` (stereo not drawn), more than 41.9 µg/mL. In the case of `CC(C)NC(=O)CSc1nccc(-c2cccs2)n1` it was 38.7 µg/mL (≈ 132 µM); in that of `Cc1ccc(NC(=O)C(=O)NCCCN2CC(C(=O)O)CC2=O)cc1` (stereo not drawn), more than 52.1 µg/mL. For `CC(C)CC(=O)Nc1ccc(C(=O)Nc2cccc(O)c2)cc1`, the kinetic solubility stood at 26.7 µg/mL (≈ 85.5 µM). As for `Cc1ccccc1C(=O)N1CCC(C(=O)OCc2ccccn2)CC1`, the solubility (kinetic) is more than 50.8 µg/mL. In the case of `C[C@H](N)c1nnc(SCC(N)=O)o1.Cl` it was more than 35.8 µg/mL; in that of `CC1CCCN(C2(O)C(=O)Nc3c(C(F)(F)F)cccc32)C1` (stereo not drawn), more than 47.1 µg/mL. In the case of `Cc1cc(N2C(=O)C(O)=C(C(=O)c3cccs3)C2c2ccc(F)cc2)no1` (stereo not drawn) it was more than 57.7 µg/mL; in that of `O=C(Nc1cccnc1)Nc1cccc([N+](=O)[O-])c1`, 10 µg/mL (≈ 38.7 µM); in that of `c1ccc(P(c2ccccc2)c2ccccn2)cc1`, 10 µg/mL (≈ 38 µM).

On to `S=C(NC1CCCCC1)N1CCn2cccc2C1c1ccncc1` (stereo not drawn), for which the kinetic solubility was found to be 36.1 µg/mL (≈ 106 µM). The figure for `Cc1cccc(C(=O)NCC(=O)N2CCCCCCC2)c1` is more than 43.3 µg/mL. In the case of `CC(C)N(Cc1ccccc1)S(=O)(=O)c1cccs1` it was 13 µg/mL (≈ 44 µM); in that of `O=C(N/C(=C/c1cccnc1)C(=O)N1CCOCC1)c1ccccc1F`, more than 53.3 µg/mL; in that of `CCCNC(=O)[C@@H]1CCCN1C(=O)[C@@H]1Cc2ccccc2CN1.Cl` (H-[Tic]-Pro-NHPr), more than 52.8 µg/mL.

On to `CN(c1ccccc1C(=O)Nc1ccc2ccccc2c1)S(C)(=O)=O`, for which the solubility (kinetic) was determined as 48.6 µg/mL (≈ 137 µM). The figure for `CCN(c1ccccc1)S(=O)(=O)c1ccc(C(=O)NCC(=O)Nc2ccc(F)c(F)c2F)cc1` is 2.8 µg/mL (≈ 5.7 µM); for `Cc1cc(Cl)ccc1-n1c(-c2cccnc2)n[nH]c1=S` it is more than 45.4 µg/mL; for `Cc1ccc(CN2CCN(Cc3ccncc3)CC2CCO)o1` (stereo not drawn) it is 34.3 µg/mL (≈ 109 µM).

Molecule `CC(Nc1cccc(C(=O)NC2CC2)c1)c1nnc(-c2ccccc2)o1` (stereo not drawn) came in with a kinetic solubility of more than 52.3 µg/mL.

Consider `CCn1c(SCC(=O)NC2CCCC2)nnc1-c1ccco1`, for which the kinetic solubility is more than 48.1 µg/mL. The figure for `CCc1cc(C(=O)N2CCCc3ccccc32)sc1C` is 9.7 µg/mL (≈ 34 µM); for `C=CCOc1ccc(C2NC(=S)NC3=C2CCc2ccccc23)cc1` (stereo not drawn) it is 11.2 µg/mL (≈ 32.1 µM); for `COc1ccc(C(=O)c2sc(Nc3ccccc3)nc2N)cc1OC` it is 0.6 µg/mL (≈ 1.69 µM). In the case of `Cc1cc(C)c2c(CN3CCOCC3)cc(=O)oc2c1C`, the kinetic solubility is 26.5 µg/mL (≈ 92.2 µM).

`O=[N+]([O-])c1cc(C(F)(F)F)ccc1NCC1CCCO1` (stereo not drawn) had a kinetic solubility of 0.6 µg/mL (≈ 2.07 µM). The figure for `C/C(=N/NC(=O)c1ccncc1)c1ccccc1` is more than 35.9 µg/mL; for `CN(CC(=O)NC(=O)Nc1ccccc1F)Cc1ccccc1F` it is 2.7 µg/mL (≈ 8.1 µM); for `COC(=O)c1ccc(S(=O)(=O)N2CCC(C(N)=O)CC2)n1C` it is more than 49.4 µg/mL.

For the molecule `CCCN(CCC)S(=O)(=O)c1nc2nc(C)cc(C)n2n1`, the kinetic solubility is more than 46.7 µg/mL.

In turn, `CCCOc1ccc(Cc2c(O)nc(SC)[nH]c2=O)cc1` displayed a solubility (kinetic) of 44.6 µg/mL (≈ 146 µM). The figure for `O=C(CN1C(=O)NC2(CCCCCC2)C1=O)NCc1ccc(F)cc1` is more than 52.1 µg/mL. In the case of `CC(=O)c1ccc(NC(=O)NCc2ccc(F)cc2)cc1` it was 7.8 µg/mL (≈ 27.2 µM); in that of `CC(NC(=O)C(=O)Nc1nccs1)c1ccccc1` (stereo not drawn), 35.4 µg/mL (≈ 129 µM). The figure for `CCn1c(SCCN2CCOCC2)nc2c1c(=O)n(C)c(=O)n2C` is more than 53 µg/mL; for `S=C(NCc1cccnc1)Nc1ccc(Cl)cc1Cl` it is more than 46.8 µg/mL; for `O=C(N[C@@H](Cc1ccccc1)C(=O)O)c1cccs1` it is more than 41.3 µg/mL. Molecule `O=C(COC(=O)c1cc(S(=O)(=O)N2CCOCC2)ccc1F)Nc1cc([N+](=O)[O-])ccc1F` registered a kinetic solubility of 7.4 µg/mL (≈ 15.2 µM). With `CN1CCN(C(=O)c2ccccc2NC(=O)c2ccccc2)CC1`, the kinetic solubility is more than 48.5 µg/mL. For the molecule `COc1ccc(S(=O)(=O)N2CCOc3ccccc32)cc1`, the kinetic solubility was determined as 17.6 µg/mL (≈ 57.6 µM).

The molecule `CN(C)c1cc(-c2ccc([N+](=O)[O-])cc2)oc(=O)c1Cl` returned a kinetic solubility of 0.9 µg/mL (≈ 3.05 µM). As for `CC(C)[C@H](NC(=O)c1ccccc1F)C(=O)NCCc1ccccc1`, the solubility (kinetic) was 26.4 µg/mL (≈ 77.1 µM). For the molecule `N#CCn1c(CN2CCCC2)nc2ccccc2c1=O`, the solubility (kinetic) was 38.6 µg/mL (≈ 144 µM). In turn, `O=C(O)/C=C/C(=O)N1CCc2ccccc21` yielded a solubility (kinetic) of more than 32.6 µg/mL.

As to `Cc1ccc(Cl)cc1N1CCN(CC(O)COC(C)C)CC1.Cl` (stereo not drawn), the solubility (kinetic) was more than 54.5 µg/mL. As to `CSc1cccc(NC(=O)C2CC(=O)N(Cc3ccccc3)C2)c1` (stereo not drawn), the solubility (kinetic) was more than 51.1 µg/mL. For the molecule `COc1ccc(COC(=O)CCc2c[nH]c3ccccc23)cc1F`, the kinetic solubility worked out at 7.7 µg/mL (≈ 23.5 µM). `COc1ccc(C2(C)NC(=O)N(CC(=O)N(c3ccccc3)C3CCS(=O)(=O)C3)C2=O)cc1` (stereo not drawn) had a solubility (kinetic) of 52.8 µg/mL (≈ 112 µM). `Nc1cccc(-c2cc3ccccc3oc2=O)c1` had a kinetic solubility of more than 35.6 µg/mL. In the case of `O=C(CNS(=O)(=O)c1ccccc1)Nc1cccc([N+](=O)[O-])c1` it was 49.1 µg/mL (≈ 146 µM). `O=C1CNC(=S)N1Cc1ccccc1Cl` had a solubility (kinetic) of more than 36.1 µg/mL.

As to `CC(=O)Nc1cccc(C(=O)OCC(=O)NC(=O)c2ccccc2)c1`, the kinetic solubility was 3.5 µg/mL (≈ 10.3 µM).

In turn, `Cc1ccc(N2C(=O)CC(C)(C)CC2=O)cc1Cl` displayed a solubility (kinetic) of 12.5 µg/mL (≈ 47 µM). Consider `COc1ccc(CCC(=O)NC2CCC(C)CC2)cc1` (stereo not drawn), for which the solubility (kinetic) turned out to be 22.2 µg/mL (≈ 80.6 µM). As to `CCCCCCCn1ccc(O)c(CC(=O)OC)c1=O`, the kinetic solubility is more than 42.2 µg/mL. The figure for `Cl.Nc1cc(Cl)ccc1N1CCCCCC1` is 12.4 µg/mL; for `CCc1ccc(NS(=O)(=O)c2cccc3nsnc23)cc1` it is 40.5 µg/mL (≈ 127 µM).

`COc1ccc(C(=O)NCCc2nc3cc([N+](=O)[O-])ccc3n2C)cc1`: the solubility (kinetic) was 2.5 µg/mL (≈ 7.05 µM). Consider `O=C(c1cccc([N+](=O)[O-])c1)c1ccccn1`, for which the solubility (kinetic) is more than 34.2 µg/mL. The figure for `CCOc1ccc(-c2csc3ncn(-c4ccc(OC)cc4)c(=O)c23)cc1` is 0.4 µg/mL (≈ 1.06 µM).
